Earlier results in the CATMoS acute toxicity set (Mansouri et al. 2021).
Where “and” joins values, the source holds several entries; their conditions need not be identical. Identical values can stand only once.

Experiment: rat acute oral toxicity
Conditions: in vivo

Row | SMILES | LD50
1 | ClCNc1cc(Cl)ccc1Oc1ccc(Cl)cc1 | 726 mg/kg
2 | CC(C)(O)CC(C)(O)c1ccc(Cl)cc1 (stereo unspecified) | 1140 mg/kg
3 | COc1cc(Cc2cnc(N)nc2N)cc(OC)c1N(C)C | 1400 mg/kg
4 | BrC=Cc1ccccc1 | 1250 mg/kg
5 | CCSCC | 3420 mg/kg
6 | CC(C)NC(=O)OC1CCN(CCCC(=O)c2ccc(F)cc2)CC1 | 310 mg/kg
7 | CC(=O)c1ccc(C)cc1 | 1400 mg/kg
8 | Oc1ccc(Cl)c(O)c1 | 369 mg/kg
9 | CC1CC(C)(O)CC(C(O)CC2CC(=O)NC(=O)C2)C1=O (stereo unspecified) | 3 mg/kg
10 | Clc1cccc(N2CCNCC2)n1 | 174 mg/kg
11 | O=C(OCC(O)CO)c1ccccc1Nc1ccnc2c(C(F)(F)F)cccc12 (stereo unspecified) | 535 mg/kg
12 | N=C1C=C(Br)C(=O)c2c(N)cc(Br)c(O)c21 | 2400 mg/kg
13 | O=S(=O)(O)c1ccc2c(Cc3cccc4cc(S(=O)(=O)O)ccc34)cccc2c1 | 3800 mg/kg
14 | CCc1ccc(=O)n(CSP(=S)(OC)OC)n1 | 30 mg/kg
15 | CN(Sc1ccc(Cl)c(Cl)c1)C(=O)Oc1cccc2c1OC(C)(C)C2 | 25 mg/kg
16 | CS(=O)(=O)OCCCN(CCCOS(C)(=O)=O)c1ccccc1 | 38 mg/kg
17 | CC(CC1c2ccccc2CCc2ccccc21)CN(C)C (stereo unspecified) | 700 mg/kg
18 | Oc1cc(Cl)c(Br)cc1Cl | 1350 mg/kg
19 | CCCCOCCOC(=O)c1ccccc1C(=O)OCCOCCCC | 8380 mg/kg
20 | CC(C)CC(C)CC(O)CC(C)C (stereo unspecified) | 17000 mg/kg
21 | CC(C)(C)[C@@H](O)[C@@H](Cc1ccc(Cl)cc1)n1cncn1 (single isomer, unassigned) | 1300 mg/kg
22 | CC(C)c1cccc(OC(=O)N(C)C)c1 | 160 mg/kg
23 | CC(C)CNC(=O)N1CCNC1=O | 3500 mg/kg
24 | OCC[N+](CCO)(CCO)CCO | 2250 mg/kg
25 | O=NN1CCOCC1 | 282 mg/kg

Row | SMILES | LD50
26 | CCCCN(CCO)CCO | 4250 mg/kg
27 | OB(O)c1ccccc1 | 740 mg/kg
28 | Nc1cc(Cl)c(N)c(Cl)c1 | 700 mg/kg
29 | CCC1(CC)C(=O)C=CN(CN2CCOCC2)C1=O | 1950 mg/kg
30 | CCN(Cc1ccncc1)C(=O)C(CO)c1ccccc1 (stereo unspecified) | 865 mg/kg
31 | CCCC1C2C=CC(C2)C1C=O (stereo unspecified) | 4600 mg/kg
32 | CCC1(CC)C(=O)NCC(C)C1=O (stereo unspecified) | 860 mg/kg
33 | CC1(C)OCC(CO)O1 (stereo unspecified) | 7000 mg/kg
34 | CCCCOCCOCCOC(=O)c1ccccc1C(=O)OCCOCCOCCCC | 9700 mg/kg
35 | CCN(CC)C(=S)N/N=C/c1ccc([N+](=O)[O-])o1 | 750 mg/kg
36 | Cc1ncc(CO)c(C=O)c1O | 2150 mg/kg
37 | OCC(F)(F)C(F)(F)C(F)(F)C(F)(F)C(F)(F)C(F)(F)C(F)(F)C(F)F | 4400 mg/kg
38 | CNC(=O)ON=C1SCCSC1(C)C | 0.27 mg/kg
39 | F[Si](F)(F)c1ccccc1 | 310 mg/kg
40 | CC(=O)OCCC1CCCCC1 | 3200 mg/kg
41 | ClC(Cl)=C(c1ccc(Cl)cc1)c1ccccc1Cl | 880 mg/kg
42 | CC[N+](CC)(CC)CCC(O)(c1ccccc1)C1CCCCC1 (stereo unspecified) | 1100 mg/kg
43 | O=COCC=Cc1ccccc1 | 2900 mg/kg
44 | COc1ccc2c(c1)c(CC(=O)O)c(C)n2C(=O)c1ccc(Cl)cc1 | 21 mg/kg
45 | C/C(=C\C(C)CC(C)CC(C)C)C1CC(=O)OC1=O (stereo unspecified) | 2550 mg/kg
46 | CCCC1=NN(c2ccccc2)C(=O)C1C=O (stereo unspecified) | 765 mg/kg
47 | C=CC(=O)OC(C)(C)C | 1050 mg/kg
48 | C=C(C)C(=O)CC | 419 mg/kg
49 | CC1(C)OCC(COC(=O)Cc2ccc3c(c2)OCc2ccccc2C3=O)O1 (stereo unspecified) | 92 mg/kg
50 | COC(=O)c1c(Cl)c(Cl)c(C(=O)OC)c(Cl)c1Cl | 3000 mg/kg

Row | SMILES | LD50
51 | CCCCCCCCCCCO | 3000 mg/kg
52 | CC1(S(=O)(=O)O)CC(=O)c2ccccc2C1=O (stereo unspecified) | 4510 mg/kg
53 | NCCCn1ccnc1 | 1780 mg/kg
54 | CCCCSP(=O)(N(C)C)N(C)C | 208 mg/kg
55 | CCN(CC)CCOC(=O)c1ccc(NCc2c(CO)cnc(C)c2O)cc1 | 5900 mg/kg
56 | c1ccc2c(c1)Cc1ccccc1N2 | 2140 mg/kg
57 | O=C(O)[C@H]1/C(=C/CO)O[C@@H]2CC(=O)N21 | 7940 mg/kg
58 | Cc1nccnc1N1CCCCC1 | 730 mg/kg
59 | COc1ccc(CCN(C)CCc2ccc(OC)c(OC)c2)cc1OC | 178 mg/kg
60 | O=C1OC(=O)C2CC=CCC12 (stereo unspecified) | 5410 mg/kg
61 | O=NN(CCCl)C(=O)NCCS(=O)(=O)NCc1ccccc1 | 250 mg/kg
62 | CN1CCCC(n2nc(Cc3ccc(Cl)cc3)c3ccccc3c2=O)CC1 (stereo unspecified) | 310 mg/kg and 580 mg/kg
63 | CC1=CC(=O)C(C)=C(C)C1=O | 200 mg/kg
64 | Nc1nc2cc(Cl)c(O)cc2o1 | 1070 mg/kg
65 | CC1C(=O)C[C@]2(C(C)C)C[C@H]12 (single isomer, unassigned; (-)) | 192 mg/kg
66 | CCN(CC(=O)OCC(F)(F)F)c1cccc(C)c1 | 1900 mg/kg
67 | CNC(=O)CSP(O)(=S)OC (stereo unspecified) | 1500 mg/kg
68 | CCN(C(C)C)C(C)C | 317 mg/kg
69 | CN1CCC(Oc2ccc(N)cc2)(c2ccccc2)CC1 | 410 mg/kg
70 | CCCCCCC=NO | 1040 mg/kg
71 | NC(=O)CCCCC1CCSS1 (stereo unspecified) | 1980 mg/kg
72 | C=CC(=O)N(C)C | 316 mg/kg
73 | CC(O)COC[C@H]1O[C@@H](O)[C@H](OCC(C)O)[C@@H](OCC(C)O)[C@@H]1O (stereo partly specified) | 10200 mg/kg
74 | CN(C)CCCN1c2ccccc2Sc2cccnc21 | 610 mg/kg
75 | COc1ccc(N)c([N+](=O)[O-])c1 | 14100 mg/kg

Row | SMILES | LD50
76 | CC(Cl)C(=O)O (stereo unspecified) | 800 mg/kg
77 | C=C(C)c1cccc(C(C)(C)N=C=O)c1 | 3100 mg/kg
78 | N[C@@H](Cc1c[nH]c2ccc(O)cc12)C(=O)O | 243 mg/kg
79 | CCOC(=O)C=[N+]=[N-] | 400 mg/kg
80 | CN(C)C(CSS(=O)(=O)O)CSS(=O)(=O)O | 333 mg/kg
81 | Cc1ncsc1C | 960 mg/kg
82 | C=C1CC(C)C2C3Cc4ccc(O)cc4C2(CCN3CC2CCC2)C1 (stereo unspecified) | 750 mg/kg
83 | O=C(CF)Nc1ccc(Br)cc1 | 29 mg/kg
84 | C=C(Cl)C(OC(C)=O)OC(C)=O | 320 mg/kg
85 | ClC1=C(Cl)C2(Cl)C(CBr)CC1(Cl)C2(Cl)Cl (stereo unspecified) | 12500 mg/kg
86 | C=CCN(CC=C)N=O | 800 mg/kg
87 | c1coc(COCc2ccco2)c1 | 210 mg/kg
88 | Nc1ccc(N(c2ccccc2)c2ccc(N)cc2)cc1 | 330 mg/kg
89 | CC(=O)OCCN(CCOC(C)=O)c1ccccc1 | 2150 mg/kg
90 | CCCCc1ccc(C(=O)O)nc1 | 480 mg/kg
91 | CC(CCCCCCCCCCCCCCCCC(=O)O)N(C)Cc1cc(C(C)N(C)CCCCCCCCCCCCCCCCCC(=O)O)cc(C(C)N(C)CCCCCCCCCCCCCCCCCC(=O)O)c1O (stereo unspecified) | 11800 mg/kg
92 | OCCN1CCN(CCC=C2c3ccccc3Sc3ccc(Cl)cc32)CC1 | 660 mg/kg
93 | CCC(C)C(C)(COC(N)=O)COC(N)=O (stereo unspecified) | 1160 mg/kg
94 | O=C(CN1CCCCC1)N1CCOc2ccccc21 | 200 mg/kg
95 | COc1ccc(-c2nc3ccc(C4=NNC(=O)CC4C)cc3[nH]2)cc1 (stereo unspecified) | 950 mg/kg
96 | CCC(C)(C)c1ccc(O)c(C(C)(C)CC)c1 | 330 mg/kg
97 | O=NN1CCSC1 | 1950 mg/kg
98 | COC(=O)c1ccco1 | 300 mg/kg
99 | CC(C)=CC1C(C(=O)OC2CC(=O)C(C3C=CCC3)=C2C)C1(C)C (stereo unspecified) | 1410 mg/kg
100 | CN(C)CCN | 1140 mg/kg

Row | SMILES | LD50
101 | O=C(O)c1cc(O)cc(C(=O)O)c1 | 11200 mg/kg
102 | CC1(C)CC(N2C(C)(C)CC(N)CC2(C)C)CC(C)(C)N1 | 2170 mg/kg
103 | Cc1ccc(=O)n(-c2ccccc2)c1 | 1300 mg/kg
104 | CCOP(=O)(OC=C(Cl)Cl)OCC | 2.5 mg/kg
105 | CN(C)C(=N)NC#N | 3840 mg/kg
106 | C[C@]12CCC(=O)C=C1[C@@H]1C[C@@H]1[C@@H]1[C@@H]2CC[C@@]2(C)[C@H]1CC[C@@]2(O)CCC(=O)O | 1400 mg/kg
107 | CC(C)NNCS(=O)(=O)O | 330 mg/kg
108 | CNC(=O)Oc1ccccc1C1OCCS1 (stereo unspecified) | 56 mg/kg
109 | COc1cc2c(cc1OC)-c1c(OC)c(OC)cc3c1[C@H](C2)N(C)CC3 | 545 mg/kg
110 | CC(C)=CCC(CCN(C)C)(C(N)=O)c1cccc2ccccc12 (stereo unspecified) | 143 mg/kg
111 | CC(=O)N1CCN(c2ccc(OC[C@H]3CO[C@](Cn4ccnc4)(c4ccc(Cl)cc4Cl)O3)cc2)CC1 | 166 mg/kg
112 | O=[N+]([O-])C=C1SCCN1Cc1ccccc1 | 1000 mg/kg
113 | Cc1c(Cl)cc2[nH]c(C(F)(F)F)nc2c1[N+](=O)[O-] | 31.4 mg/kg
114 | CCCCCCCC/C=C\CCCCCCCC(=O)N(C)CCS(=O)(=O)O | 1700 mg/kg
115 | CC(CC(C)(C)O)OCCC#N (stereo unspecified) | 3200 mg/kg
116 | COP(=S)(OC)SCSc1ccccc1 | 16 mg/kg
117 | CCOCCOc1ccc(Cl)cc1Cl | 1410 mg/kg
118 | CCCSP(=O)(OCC)Oc1ccc(Sc2ccc(Cl)cc2)cc1 (stereo unspecified) | 690 mg/kg
119 | CCCCCCCCCCCC(=O)O | 12000 mg/kg
120 | COC(=O)C=C(C)N | 1760 mg/kg
121 | CNC(=O)ON=CC1(C)SC(C)C(C)S1 (stereo unspecified) | 2.5 mg/kg
122 | CSP(SC)SC | 105 mg/kg
123 | CCCCC(CC)COC(CBr)c1cccc(Cl)c1 (stereo unspecified) | 250 mg/kg
124 | CCCN1C(=O)C2C3C=C(C(O)(c4ccccc4)c4ccccn4)C(C3=C(c3ccccc3)c3ccccn3)C2C1=O (stereo unspecified) | 34.5 mg/kg
125 | CCOC(C1=NCCCN1)c1cccc(Cl)c1 (stereo unspecified) | 695 mg/kg

Row | SMILES | LD50
126 | CCNC(=O)Nc1ncc([N+](=O)[O-])s1 | 2150 mg/kg
127 | CCOC(=O)C1=C(C)NC(C)=C(C(=O)OCC)C1c1ccccc1C(F)(F)F | 1220 mg/kg
128 | CC(C(=O)OCCCS(=O)(=O)O)c1ccc(-c2ccccc2)cc1 (stereo unspecified) | 280 mg/kg
129 | Nc1ccc(/N=N/c2ccc(-c3ccc(/N=N/c4c(S(=O)(=O)O)cc5cc(S(=O)(=O)O)c(/N=N/c6ccccc6)c(O)c5c4N)cc3)cc2)c(N)c1 | 7600 mg/kg
130 | CC(C)OC(=O)c1ccccc1 | 3730 mg/kg
131 | CCN(C(=O)c1cc(Cl)nc(Cl)c1)C1CC1 | 78 mg/kg
132 | COCNC(=O)CSP(=S)(OC)OC | 600 mg/kg
133 | CC(C)COC(=O)c1ccccc1O | 1560 mg/kg
134 | COC(=O)C1=C(C)NC(C)=C(C(=O)OCC(C)C)C1c1ccccc1[N+](=O)[O-] (stereo unspecified) | 1260 mg/kg
135 | Cc1cc(=O)oc2cc(O)ccc12 | 3850 mg/kg
136 | O=P(O)(O)CN(CP(=O)(O)O)CP(=O)(O)O | 17800 mg/kg
137 | CCOC(=O)CC(=O)CCl | 200 mg/kg
138 | Nc1ccc2cc(S(=O)(=O)O)ccc2c1CS(=O)(=O)O | 9200 mg/kg
139 | FCCOC(Cl)C(Cl)(Cl)Cl (stereo unspecified) | 18 mg/kg
140 | O=S(=O)(c1ccc(Cl)cc1)c1cc(Cl)c(Cl)cc1Cl | 566 mg/kg
141 | COc1cccc(C2(O)CCCCC2CN(C)C)c1 (stereo unspecified) | 228 mg/kg
142 | CC(=O)O[C@@H]1C[C@]2(O)[C@H](CC[C@]3(C)[C@@H](c4ccc(=O)oc4)CC[C@@]32O)[C@@]2(C)CC[C@H](O[C@@H]3O[C@H](CO)[C@@H](O)[C@H](O)[C@H]3O)C=C12 | 0.43 mg/kg
143 | CC(=O)NCCO | 27000 mg/kg
144 | CN(C)CC(=O)O | 3900 mg/kg
145 | CC(=O)O[C@H]1C[C@@H]2CC[C@@]1(C)C2(C)C | 9050 mg/kg
146 | Cc1cccc(N2CCN(CC=Cc3ccc4c(c3)CCC(=O)N4)CC2)c1 | 500 mg/kg
